Five compounds from patent US10532075B2, “Use of a particular extract of propolis for combating the side effects of chemotherapy” (POLLENERGIE, priority 2014, dated 2020) can be followed below.

Series [1] in a line: in-vivo side effects of chemotherapy: change in weight of the animals. The source says: (§1) Wistar rats of approximately 200 g were used during this in-vivo experiment, at a rate of 8 animals per group. […] The animals are sacrificed 21 days after the injection of the chemotherapy agent. The weight and the different parameters of the blood formula will be tracked in these animals on days D+1, D+6 and D+14 and D+21 post-chemotherapy injection. The contents of endogenic antioxidants (glutathione=GSH) and the hepatocytic lipid peroxidation (MDA) levels will be evaluated on D+21.

A further series deals with red blood cells. Nature of the series: in-vivo side effects of chemotherapy: change in red blood cells.
Source text: as §1

The next series has as its system white blood cells. Nature of the series: in-vivo side effects of chemotherapy: change in white blood cells.
Source text: as §1

The subject of a further series is plasmatic creatinine. Nature of the series: in-vivo side effects of chemotherapy: plasmatic creatinine.
Source text: as §1

Series [2] relates to plasmatic glutathione (GSH). Nature of the series: in-vivo side effects of chemotherapy: plasmatic glutathione.
Source text: as §1
(§2) The chemotherapy agents also have an impact on the primary intracellular antioxidant: glutathione (GSH) and on oxidative damage through the formation of diene conjugates, which is a reflection of the lipid peroxidation of the cellular membranes (the MDA) on the plasmatic level. These two measurements are complementary since normally a correct level of GSH makes it possible to maintain a relatively low level of MDA.

The next series relates to plasma MDA. Nature of the series: in-vivo side effects of chemotherapy: plasma MDA.
Source text: as §1, §2

Series [3] relates to Primary hepatocytes of rats. In words: reversion of chemotherapy agent toxicity: hepatocyte cytolysis after propolis pretreatment, then tamoxifen. Type of series: cell-based. As to conditions: tamoxifen alone. The protocol: Primary hepatocytes of rats were sampled and inoculated into a 96-well plate. 24 hours after the inoculation, the hepatocytes were treated with different doses of propolis (Example 1) for 24 hours.
The percentage of hepatic cells that are cytolyzed after a pretreatment with different concentrations of propolis and then subjected to a cytotoxic concentration of tamoxifen (25 μM) was evaluated and presented in the table below: […]

[4] abbreviates: chemotherapy agent alone, D + 1 post-injection.
[5] abbreviates: chemotherapy agent alone, D + 6 post-injection.
Where [6] appears, read: chemotherapy agent alone, D + 14 post-injection.
Setting [7] is: chemotherapy agent alone, D + 21 post-injection.
Where [8] appears, read: chemotherapy agent alone, D − 5 (before treatment).
Where [9] appears, read: chemotherapy agent alone, 21st day post-injection.
Where [10] appears, read: chemotherapy agent alone, 21st day.

Regarding `O=c1[nH]cc(F)c(=O)[nH]1` [Powder 5-FU, 5-FU], the “weight: Variation between D + 1 and D + 21” value in series [1] (chemotherapy agent alone) was −13.9. Further, the “weight of the animals” value was determined as 157.6 in series [1] (setting [4]); 153.7 in series [1] (setting [5]); 147.9 in series [1] (setting [6]); 143.7 in series [1] (setting [7]); 153.5 in series [1] (setting [8]). For the same compound, in the series on red blood cells (chemotherapy agent alone), the “red blood cells: Variation between D + 1 and D + 21” value is reported as −55%. The “reduction in red blood cells” value with red blood cells (setting [9]) was 55%. In addition, the red blood cells is recorded as 6.56 in the series with red blood cells (setting [4]); 4.19 in the series with red blood cells (setting [5]); 3.05 in the series with red blood cells (setting [6]); 2.94 in the series with red blood cells (setting [7]); 6.51 in the series on red blood cells (setting [8]). In the series with white blood cells (chemotherapy agent alone), the “white blood cells: Variation between D − 5 and D + 21” value is −40%. For the same compound, the white blood cells was 3.91 in the series on white blood cells (setting [4]); 2.74 in the series with white blood cells (setting [5]); 10.82 in the series with white blood cells (setting [6]); 3.86 with white blood cells (setting [7]); 6.49 in the series with white blood cells (setting [8]). Moreover, the “plasmatic creatinine: Variation between D − 5 and D + 21” value with plasmatic creatinine (chemotherapy agent alone) is “+41%”. In addition, the plasmatic creatinine in the series on plasmatic creatinine (setting [4]) stood at 9; in the series on plasmatic creatinine (setting [7]), 10.19; in the series with plasmatic creatinine (setting [8]) it was 7.25. For the same compound, the “plasmatic glutathione: Variation between D − 5 and D + 21” value in series [2] (chemotherapy agent alone) was −20%. Besides, in series [2] (setting [10]), the “effect on the level of plasma GSH (in words)” value (from here on “effect on the level”) is “very distinct significant decrease in the level of plasma GSH”. In addition, the plasmatic glutathione in series [2] (setting [7]) came out at 17.65; in series [2] (setting [8]), 22.14. The “plasma MDA: Variation between D − 5 and D + 21” value in the series with plasma MDA (chemotherapy agent alone) is “+41%”. Besides, the “plasma MDA” value is reported as 62.85 with plasma MDA (setting [7]) and 44.49 in the series with plasma MDA (setting [8]).
Consider `CC(=O)O[C@@]12CO[C@@H]1C[C@H](O)[C@@]1(C)C(=O)[C@H](O)C3=C(C)[C@@H](OC(=O)[C@H](O)[C@@H](NC(=O)OC(C)(C)C)c4ccccc4)C[C@@](O)([C@@H](OC(=O)c4ccccc4)[C@H]21)C3(C)C` [Taxotere, taxotere], for which, in series [1] (rat, in vivo), the “weight of the animals” value is recorded as 151.6; the “weight: Variation between D + 1 and D + 21” value is listed as “+18.6”. Moreover, in the series with red blood cells (rat, in vivo), the red blood cells was 6.39 10^6/µL; the “red blood cells: Variation between D + 1 and D + 21” value is reported as −52%; the “reduction in red blood cells” value is 52%. In addition, in the series on white blood cells (rat, in vivo), the white blood cells stood at 6.44; the “white blood cells: Variation between D − 5 and D + 21” value is −51%. In the series with plasmatic creatinine (rat, in vivo), the plasmatic creatinine came out at 7.60; the “plasmatic creatinine: Variation between D − 5 and D + 21” value is recorded as “+52%”. For the same compound, in series [2] (rat, in vivo), the “effect on the level” value was “very distinct significant decrease in the level of plasma GSH”; the plasmatic glutathione is 22.88; the “plasmatic glutathione: Variation between D − 5 and D + 21” value was −26%. For the same compound, in the series with plasma MDA (rat, in vivo), the “plasma MDA” value is reported as 45.90; the “plasma MDA: Variation between D − 5 and D + 21” value was “+88%”.
As to `COc1cccc2c1C(=O)c1c(O)c3c(c(O)c1C2=O)C[C@@](O)(C(=O)CO)C[C@@H]3O[C@H]1C[C@H](N)[C@@H](O)[C@H](C)O1` [Epirubicin, epirubicin], in series [1] (rat, in vivo), the “weight of the animals” value was 150.2; the “weight: Variation between D + 1 and D + 21” value is −0.9. Besides, in the series with red blood cells (rat, in vivo), the red blood cells was 6.73 10^6/µL; the “red blood cells: Variation between D + 1 and D + 21” value is reported as −48%; the “reduction in red blood cells” value stood at 48%. Moreover, in the series on white blood cells (rat, in vivo), the white blood cells is on record as 6.79; the “white blood cells: Variation between D − 5 and D + 21” value is reported as −46%. Further, the “plasmatic creatinine: Variation between D − 5 and D + 21” value in the series with plasmatic creatinine (rat, in vivo) is listed as “+60%”. Also, in series [2] (rat, in vivo), the “effect on the level” value is given as “very distinct significant decrease in the level of plasma GSH”; the plasmatic glutathione is listed as 23.86; the “plasmatic glutathione: Variation between D − 5 and D + 21” value is on record as −46%. In addition, in the series on plasma MDA (rat, in vivo), the “plasma MDA” value was found to be 46.61; the “plasma MDA: Variation between D − 5 and D + 21” value is “+83%”.
For the compound `O=P1(N(CCCl)CCCl)NCCCO1` (stereo not shown) [Cyclophosphamide, cyclophosphamide], the “weight: Variation between D + 1 and D + 21” value in series [1] (chemotherapy agent alone) is −14.9. The “weight of the animals” value in series [1] (setting [4]) was 167.2; in series [1] (setting [5]), 157.7; in series [1] (setting [6]), 164; in series [1] (setting [7]) it was 152.3; in series [1] (setting [8]), 160.4. Moreover, the “red blood cells: Variation between D + 1 and D + 21” value with red blood cells (chemotherapy agent alone) is recorded as −46%. The “reduction in red blood cells” value in the series on red blood cells (setting [9]) is reported as 45%. Also, the red blood cells in the series with red blood cells (setting [4]) is listed as 5.94; with red blood cells (setting [5]), 4.23; with red blood cells (setting [6]), 3.80; with red blood cells (setting [7]) it was 3.22; with red blood cells (setting [8]) it was 6.51. In addition, the “white blood cells: Variation between D − 5 and D + 21” value in the series with white blood cells (chemotherapy agent alone) is recorded as −49%. In addition, the white blood cells with white blood cells (setting [4]) was determined as 3.33; in the series with white blood cells (setting [5]) it was 2.96; with white blood cells (setting [6]) it was 10.20; with white blood cells (setting [7]), 3.19; with white blood cells (setting [8]), 6.30. In addition, in the series on plasmatic creatinine (chemotherapy agent alone), the “plasmatic creatinine: Variation between D − 5 and D + 21” value is on record as “+59%”. Besides, the plasmatic creatinine in the series on plasmatic creatinine (setting [4]) amounted to 7.25; in the series with plasmatic creatinine (setting [7]) it was 10.14; with plasmatic creatinine (setting [8]) it was 6.38. In addition, the “plasmatic glutathione: Variation between D − 5 and D + 21” value in series [2] (chemotherapy agent alone) is recorded as −10%. Moreover, the “effect on the level” value in series [2] (setting [10]) is given as “a little less distinct”. Further, the results for the plasmatic glutathione in series [2] (setting [7]) and in series [2] (setting [8]) were 23.81 and 26.39, respectively. The “plasma MDA: Variation between D − 5 and D + 21” value in the series with plasma MDA (chemotherapy agent alone) is given as “+48%”. The figures for the “plasma MDA” value with plasma MDA (setting [7]) and with plasma MDA (setting [8]) were 79.10 and 43.78, respectively.
Take `CC/C(=C(\c1ccccc1)c1ccc(OCCN(C)C)cc1)c1ccccc1` [Tamoxifen, tamoxifen]: the “cytolysis of hepatocytes (in words)” value in series [3] is given as “dose-dependent cytolysis of hepatocytes”.
